`Cl.N#CCC(=O)N[C@H]1CC[C@H](CCN2CCN(c3ccccc3)CC2)CC1` displayed a melting point of 243 °C.

`Cl.Cl.O=C(CN1CCC(CCN2CCN(c3cccc(C(F)(F)F)c3)CC2)CC1)c1ccccc1` yielded a melting point of 260 °C.

Consider `Cl.N#CCC(=O)N[C@H]1CC[C@@H](CCN2CCN(c3ccccc3F)CC2)CC1`, for which the melting point worked out at 153 °C.

For the compound `COCC(=O)N1CCC(CCN2CCN(c3cccc(C(F)(F)F)c3)CC2)CC1.Cl`, the melting point was found to be 150 °C.

`CC(C)Oc1cccc(N2CCN(CC[C@H]3CC[C@H](NC(=O)CC#N)CC3)CC2)c1.Cl` showed a melting point of 191 °C.

For the compound `CC(=O)CN1CCC(CCN2CCN(c3cc(C#N)cc(C(F)(F)F)c3)CC2)CC1.Cl.Cl`, the melting point worked out at 280 °C.

Turning to `N#CCC(=O)N[C@H]1CC[C@H](CCN2CC=C(c3cc(C(F)(F)F)cc(C(F)(F)F)c3)CC2)CC1`, the melting point was 174 °C.

With `CC(=O)CN1CCC(CCN2CCN(c3cccc(C)c3C#N)CC2)CC1.Cl.Cl`, the melting point was found to be 215 °C.

Take `CC(=O)CN1CCC(CCN2CCN(c3cccc(C#N)c3)CC2)CC1.Cl.Cl`: the melting point worked out at 250 °C.

`COc1ccc(C)c(N2CCN(CCC3CCN(CC(C)=O)CC3)CC2)c1.Cl.Cl` displayed a melting point of 283 °C.

Take `CCOC(=O)CN1CCC(CCN2CCN(c3cccc(C(F)(F)F)c3)CC2)CC1.Cl.Cl`: the melting point came out at 240 °C.

On to `CC(=O)CN1CCC(CCN2CCN(c3cccc(C)c3C)CC2)CC1.Cl.Cl`, for which the melting point came out at 290 °C.

`CC(=O)CN1CCC(CCN2CCN(c3ccccc3C)CC2)CC1.Cl.Cl` gave a melting point of 289 °C.

`Cl.Cl.O=C(CN1CCC(CCN2CCN(c3cccc(C(F)(F)F)c3)CC2)CC1)c1ccc(F)cc1`: the melting point was found to be 265 °C.

As to `CC(=O)CN1CCC(CCN2CCN(c3cccc4c3CCCC4)CC2)CC1.Cl.Cl`, the melting point worked out at 320 °C.

On to `CC(=O)CN1CCC(CCN2CCN(c3cccc(C(F)(F)F)c3F)CC2)CC1.Cl.Cl`, for which the melting point was 270 °C.

Take `CCc1cccc(N2CCN(CCC3CCN(CC(C)=O)CC3)CC2)c1.Cl.Cl`: the melting point is 266 °C.

In the case of `CC(=O)CN1CCC(CCN2CCN(c3cccc(F)c3C)CC2)CC1.Cl.Cl`, the melting point stood at 317 °C.

Regarding `CC(=O)CN1CCC(CCN2CCN(c3cc(C(F)(F)F)cc(C(F)(F)F)c3)CC2)CC1.Cl.Cl`, the melting point worked out at 260 °C.

On to `N#CCC(=O)N[C@H]1CC[C@H](CCN2CC=C(c3cccc(C(F)(F)F)c3F)CC2)CC1`, for which the melting point was 171 °C.

With `COc1cccc(N2CCN(CCC3CCN(CC(C)=O)CC3)CC2)c1.Cl.Cl`, the melting point was 265 °C.

The compound `CC(=O)CN1CCC(CCN2CCN(c3cccc(OC(F)(F)F)c3)CC2)CC1.Cl.Cl` returned a melting point of 275 °C.

For the compound `CCc1ccccc1N1CCN(CCC2CCN(CC(C)=O)CC2)CC1.Cl.Cl`, the melting point is 291 °C.

For `CC(=O)CN1CCC(CCN2CCN(c3cccc4c3CCC4)CC2)CC1.Cl.Cl`, the melting point came to 295 °C.

`N#CCCCC(=O)N[C@H]1CC[C@H](CCN2CC=C(c3cccc(C(F)(F)F)c3F)CC2)CC1` yielded a melting point of 130 °C.

In turn, `N#CCC(=O)N[C@H]1CC[C@H](CCN2CC=C(c3ccc(Cl)cc3)CC2)CC1` returned a melting point of 220 °C.

In turn, `Cc1cc(C)cc(C2=CCN(CC[C@H]3CC[C@H](NC(=O)CC#N)CC3)CC2)c1` gave a melting point of 182 °C.

On to `CC(=O)CN1CCC(CCN2CCN(c3cc(C(C)(C)C)cc(C(C)(C)C)c3)CC2)CC1.Cl.Cl`, for which the melting point amounted to 308 °C.

`Cc1cc(C)cc(C2=CCN(CC[C@H]3CC[C@H](NC(=O)CCCC#N)CC3)CC2)c1` showed a melting point of 166 °C.

Compound `N#CCC(=O)N[C@H]1CC[C@@H](CCN2CC=C(c3ccc(F)cc3)CC2)CC1` had a melting point of 147 °C.

The compound `COCC(=O)N[C@H]1CC[C@H](CCN2CCN(c3cccc(C(F)(F)F)c3)CC2)CC1.Cl` registered a melting point of 217 °C.

The compound `CC(=O)CN1CCC(CCN2CCN(c3ccccc3C(C)C)CC2)CC1.Cl.Cl` registered a melting point of 260 °C.

In turn, `N#CCCCC(=O)N[C@H]1CC[C@H](CCN2CC=C(c3ccccc3)CC2)CC1` gave a melting point of 171 °C.

For the compound `CC(=O)CN1CCC(CCN2CCN(c3ccc(C)c(C(F)(F)F)c3)CC2)CC1.Cl.Cl`, the melting point is 325 °C.

Regarding `CC(=O)CN1CCC(CCN2CCN(c3ccc(F)cc3F)CC2)CC1.Cl.Cl`, the melting point was 260 °C.

Compound `CCOCC(=O)N[C@H]1CC[C@H](CCN2CC=C(c3ccc(Cl)cc3)CC2)CC1` yielded a melting point of 149 °C.

`N#CCCCC(=O)N[C@H]1CC[C@H](CCN2CC=C(c3ccc(Cl)cc3)CC2)CC1` gave a melting point of 198 °C.

The compound `N#CCCCC(=O)N[C@H]1CC[C@H](CCN2CC=C(c3ccc(F)cc3)CC2)CC1` had a melting point of 180 °C.

Compound `O=C(N[C@H]1CC[C@H](CCN2CC=C(c3ccccc3)CC2)CC1)C1=CCCC1` displayed a melting point of 202 °C.

`CC(=O)CN1CCC(CCN2CCN(c3cccc(C(F)F)c3)CC2)CC1.Cl.Cl` gave a melting point of 265 °C.

Consider `CC(=O)CN1CCC(CCN2CCN(c3cccc4c3OCO4)CC2)CC1.Cl.Cl`, for which the melting point is 264 °C.

For the compound `CC(=O)CN1CCC(CCN2CCN(c3cc(C)ccc3F)CC2)CC1.Cl.Cl`, the melting point is 275 °C.

For `CC(=O)CC1CCC(CCN2CCN(c3cccc(C(F)(F)F)c3)CC2)CC1.Cl` (stereo not shown), the melting point was determined as 160 °C.

The compound `CC(=O)CN1CCC(CCN2CCN(c3cc(C(C)(C)C)nc(C(C)(C)C)n3)CC2)CC1.Cl.Cl` returned a melting point of 310 °C.

As for `CC(=O)CN1CCC(CCN2CCN(c3cccc(C(=O)C(C)C)c3)CC2)CC1.Cl.Cl`, the melting point was determined as 250 °C.

Compound `Cl.N#CCC(=O)N1CCC(CCN2CCN(c3cccc4c3CCC4)CC2)CC1` displayed a melting point of 210 °C.

`CC(=O)C(=O)N1CCC(CCN2CCN(c3cccc(Cl)c3Cl)CC2)CC1.Cl` showed a melting point of 244 °C.

Regarding `Cl.N#CCC(=O)N1CCC(CCN2CCN(c3cccc(Cl)c3Cl)CC2)CC1`, the melting point came to 228 °C.

In turn, `CCOc1ccccc1N1CCN(CCC2CCN(CC(C)=O)CC2)CC1.Cl.Cl` returned a melting point of 271 °C.

Compound `Cl.NC(=O)CCC(=O)N1CCC(CCN2CCN(c3cccc4c3CCC4)CC2)CC1` came in with a melting point of 137 °C.

For `CCC(=O)C(=O)N1CCC(CCN2CCN(c3cccc4c3CCC4)CC2)CC1.Cl`, the melting point stood at 202 °C.

On to `CC(=O)CN1CCC(CCN2CCc3cc(C#N)ccc3C2)CC1.Cl.Cl`, for which the melting point worked out at 249 °C.

Regarding `COc1ccc(OC)c(N2CCN(CCC3CCN(CC(C)=O)CC3)CC2)c1.Cl.Cl`, the melting point was found to be 268 °C.

For the compound `COc1ccc(C)cc1N1CCN(CCC2CCN(CC(C)=O)CC2)CC1.Cl.Cl`, the melting point stood at 260 °C.

In turn, `CC(=O)CN1CCC(CCN2CCN(c3cc(Cl)cc(C(F)(F)F)c3)CC2)CC1.Cl.Cl` showed a melting point of 289 °C.

The compound `CC(=O)CN1CCC(CCN2CC=C(c3cc(C(F)(F)F)ccc3F)CC2)CC1.Cl.Cl` came in with a melting point of 282 °C.

The compound `N#CCC(=O)N[C@H]1CC[C@H](CCN2CC=C(c3cc(C(F)(F)F)ccc3F)CC2)CC1` displayed a melting point of 168 °C.

With `CCCOCC(=O)N[C@H]1CC[C@H](CCN2CCN(c3cc(C(F)(F)F)ccc3F)CC2)CC1.Cl`, the melting point was 240 °C.

Regarding `CC(=O)CN1CCC(CCN2CCN(c3cccc(Cc4ccccc4)c3)CC2)CC1.Cl.Cl`, the melting point was determined as 253 °C.

As for `CC(=O)CN1CCC(CCN2CCN(c3ccc(F)c(F)c3)CC2)CC1.Cl.Cl`, the melting point was 249 °C.

`CCOCC(=O)N1CCC(CCN2CCN(c3cccc4c3CCC4)CC2)CC1.Cl` had a melting point of 270 °C.

In the case of `CC(=O)CN1CCC(CCN2CC=C(c3cccc(C#N)c3)CC2)CC1`, the melting point was 94 °C.

`N#CCC(=O)N[C@H]1CC[C@H](CCN2CC=C(c3cccc(C#N)c3)CC2)CC1`: the melting point is 185 °C.

The compound `COCCCC(=O)N[C@H]1CC[C@H](CCN2CC=C(c3cccc(C#N)c3)CC2)CC1` registered a melting point of 178 °C.

Consider `CC(=O)CN1CCC(CCN2CCN(c3cc(C(F)(F)F)ccc3Cl)CC2)CC1.Cl.Cl`, for which the melting point was determined as 299 °C.

With `CC(=O)CN1CCC(CCN2CCN(c3cc(F)c(C(F)(F)F)c(F)c3)CC2)CC1.Cl.Cl`, the melting point came to 80 °C.

`N#CCCCC(=O)N[C@H]1CC[C@H](CCN2CC=C(c3cc(C(F)(F)F)ccc3F)CC2)CC1` returned a melting point of 153 °C.

Regarding `COCCCC(=O)N[C@H]1CC[C@H](CCN2CC=C(c3cc(C(F)(F)F)ccc3F)CC2)CC1`, the melting point stood at 164 °C.

With `CC(=O)CN1CCC(CCN2CCN(c3cc(C)ccc3C)CC2)CC1.Cl.Cl`, the melting point is 350 °C.

As to `CC(=O)CN1CCC(CCN2CCN(c3cc(C)cc(F)c3)CC2)CC1.Cl.Cl`, the melting point is 273 °C.

On to `Cl.N#CCCC(=O)N1CCC(CCN2CC=C(c3cc(C(F)(F)F)ccc3F)CC2)CC1`, for which the melting point was 150 °C.

In turn, `CC(=O)CN1CCC(CCN2CCN(c3ccc(F)c(C)c3)CC2)CC1.Cl.Cl` registered a melting point of 258 °C.

`CCc1ccccc1C1=CCN(CCC2CCN(CC(C)=O)CC2)CC1.Cl.Cl` had a melting point of 316 °C.

In the case of `Cl.O=C(CCC(F)(F)F)N1CCC(CCN2CCN(c3cccc4c3CCC4)CC2)CC1`, the melting point turned out to be 219 °C.

`CCc1ccccc1C1=CCN(CC[C@H]2CC[C@H](NC(=O)CC#N)CC2)CC1`: the melting point was found to be 158 °C.

On to `CCc1ccccc1C1=CCN(CC[C@H]2CC[C@H](NC(=O)CCCC#N)CC2)CC1`, for which the melting point was found to be 120 °C.

Regarding `Cc1ccccc1C1=CCN(CC[C@H]2CC[C@H](NC(=O)CC#N)CC2)CC1`, the melting point came to 166 °C.

Consider `CC(=O)CN1CCC(CCN2CC=C(c3ccccc3C)CC2)CC1.Cl.Cl`, for which the melting point came to 292 °C.

Take `COCCCC(=O)N[C@H]1CC[C@H](CCN2CC=C(c3ccc(F)cc3)CC2)CC1`: the melting point amounted to 201 °C.

`CSc1ccccc1N1CCN(CCC2CCN(CC(C)=O)CC2)CC1.Cl.Cl` registered a melting point of 280 °C.

For the compound `CC(=O)CN1CCC(CCN2CCN(c3cccc(Cl)c3C#N)CC2)CC1.Cl.Cl`, the melting point is 284 °C.

Take `N#CCC(=O)N[C@H]1CC[C@H](CCN2CC=C(c3cccc(C(F)(F)F)c3)CC2)CC1`: the melting point is 149 °C.

Source of the values: patent publication US8802678B2, “Carbonylated (aza) cyclohexanes as dopamine D3 receptor ligands” (Bioprojet, priority 2006, dated 2014).
